Measured values: patent US20200069650A1, “DEXMEDETOMIDINE OR MEDETOMIDINE FOR USE IN TREATING SEPARATION ANXIETY IN DOGS” (Orion Corporation, priority 2016, published 2020)

System: separation anxiety in dogs
Settings: Example 6: mixed breed dog, behavioural modification supported by fluoxetine
Description: Oromucosal dexmedetomidine gel was then administered to buccal/gingival mucosa of the dog with a syringe using a dose of 125 μg/m^2 of dexmedetomidine hydrochloride about 15 minutes prior to unscheduled departures such as shopping and visiting friends.

CNCCC(Oc1ccc(C(F)(F)F)cc1)c1ccccc1 (centres unmarked) [fluoxetine]
effect of conventional therapy on regular daily work departures: enabled trouble free leaving dog at home during regular daily work departures | signs of separation anxiety at unscheduled departures under conventional therapy (before gel): still showed signs of sepration anxiety to unscheduled departures
